Patent publication US7101868B2, “Substituted arylamine derivatives and methods of use” (Amgen Inc., priority 2001, dated 2006)

These molecules were tested on VEGF-stimulated HUVEC proliferation (Human Umbilical Vein Endothelial cells) (assay: HUVEC Proliferation Assay). Settings: VEGF 50 ng/mL final, 72 h incubation, CyQuant fluorescent dye, read-out: inhibited VEGF-stimulated HUVEC proliferation at a level (IC50).
Format: cell-based
Experimental: Human Umbilical Vein Endothelial cells are purchased from Clonetics, Inc., as cryopreserved cells harvested from a pool of donors. These cells, at passage 1, are thawed and expanded in EBM-2 complete medium, until passage 2 or 3. The cells are trypsinized, washed in DMEM+10% FBS+antibiotics, and spun at 1000 rpm for 10 min. Prior to centrifugation of the cells, a small amount is collected for a cell count. After centrifugation, the medium is discarded, and the cells are resuspended in the appropriate volume of DMEM+10% FBS+antibiotics to achieve a concentration of 3×10^5 cells/mL. Another cell count is performed to confirm the cell concentration. The cells are diluted to 3×10^4 cells/mL in DMEM+10% FBS+antibiotics, and 100 μL of cells are added to a 96-well plate. The cells are incubated at 37° C. for 22 h.
Prior to the completion of the incubation period, compound dilutions are prepared. Five-point, five-fold serial dilutions are prepared in DMSO, at concentrations 400-fold greater than the final concentrations desired. 2.5 μL of each compound dilution are diluted further in a total of 1 mL DMEM+10% FBS+antibiotics (400× dilution). Medium containing 0.25% DMSO is also prepared for the 0 μM compound sample. At the 22-hour timepoint, the medium is removed from the cells, and 100 μL of each compound dilution is added. The cells are incubated at 37° C. for 2-3 h.
During the compound pre-incubation period, the growth factors are diluted to the appropriate concentrations. Solutions of DMEM+10% FBS+antibiotics, containing either VEGF or bFGF at the following concentrations: 50, 10, 2, 0.4, 0.08, and 0 ng/mL are prepared. For the compound-treated cells, solutions of VEGF at 550 ng/mL or bFGF at 220 ng/mL for 50 ng/mL or 20 ng/mL final concentrations, respectively, are prepared since 10 μL of each will be added to the cells (110 μL final volume). At the appropriate time after adding the compounds, the growth factors are added. VEGF is added to one set of plates, while bFGF is added to another set of plates. For the growth factor control curves, the media on wells B4-G6 of plates 1 and 2 are replaced with media containing VEGF or bFGF at the varying concentrations (50-0 ng/mL). The cells are incubated at 37° C. for an additional 72 h.
At the completion of the 72 h incubation period, the medium is removed, and the cells are washed twice with PBS. After the second wash with PBS, the plates are tapped gently to remove excess PBS, and the cells are placed at −70° C. for at least 30 min. The cells are thawed and analyzed using the CyQuant fluorescent dye (Molecular Probes C-7026), following the manufacturer's recommendations. The plates are read on a Victor/Wallac 1420 workstation at 485 nm/530 nm (excitation/emission). Raw data are collected and analyzed using a 4-parameter fit equation in XLFit. IC50 values are then determined.
`CCC(C)c1ccc(NC(=O)c2cccnc2NCc2ccc(F)cc2)cc1` (centres unmarked) [Example 16, N-(4-sec-butylphenyl)-2-[(4-fluorobenzyl)amino]nicotinamide] was tested, and the IC50 was under 50 nM.
For `CC(C)(C)c1ccc(NC(=O)c2cccnc2NCc2ccc(F)cc2)cc1` [Example 17, N-(4-tert-Butylphenyl)-2-[(4-fluorobenzyl)amino]nicotinamide], the IC50 was under 50 nM.
Work on `CC(C)c1ccc(NC(=O)c2cccnc2NCc2ccc(F)cc2)cc1` [Example 20, (2-{[(4-Fluorophenyl)methyl]amino}(3-pyridyl))-N-[4-(methylethyl)phenyl]carboxamide] yielded an IC50 of under 50 nM.
`O=C(Nc1cccc(C(F)(F)F)c1)c1cccnc1NCc1ccc(F)cc1` [Example 21, (2-{[(4-Fluorophenyl)methyl]amino}(3-pyridyl))-N-[3-(trifluoromethyl)phenyl]carboxamide] showed an IC50 of under 50 nM.
With `O=C(Nc1cccc(C(F)(F)F)c1)c1cccnc1NCc1ccc(Br)cc1` [Example 25, (2-{[(4-Bromophenyl)methyl]amino}(3-pyridyl))-N-[3-(trifluoromethyl)phenyl]carboxamide] the IC50 was under 50 nM.
For `O=C(Nc1cccc(C(F)(F)F)c1)c1cccnc1NCc1ccc(Cl)cc1` [Example 26, (2-{[(4-Chlorophenyl)methyl]amino}(3-pyridyl))-N-[3-(trifluoromethyl)phenyl]carboxamide], the IC50 was under 50 nM.
Work on `O=C(Nc1cccc(C(F)(F)F)c1)c1cccnc1NCc1ccc(F)cc1F` [Example 27, (2-{[(2,4-Difluorophenyl)methyl]amino}(3-pyridyl))-N-[3-(trifluoromethyl)phenyl]carboxamide] yielded an IC50 of under 50 nM.
Molecule `O=C(Nc1cccc(C(F)(F)F)c1)c1cccnc1NCc1ccc(F)c(F)c1` [Example 29, (2-{[(3,4-Difluorophenyl)methyl]amino}(3-pyridyl))-N-[3-(trifluoromethyl)phenyl]carboxamide] has an IC50 of under 50 nM.
`O=C(Nc1ccc(C(F)(F)F)cc1)c1cccnc1NCc1ccc(F)cc1` [Example 34, (2-{[(4-Fluorophenyl)methyl]amino}(3-pyridyl))-N-(4-(trifluoromethyl)phenyl]carboxamide] showed an IC50 of under 50 nM.
`CN(C)CCCc1cc(NC(=O)c2cccnc2NCc2ccc(F)cc2)cc(C(F)(F)F)c1` [Example 35, N-{3-[3-(Dimethylamino)propyl]-5-(trifluoromethyl)phenyl}(2-{[(4-fluorophenyl)methyl]amino}(3-pyridyl))carboxamide] was tested, and the IC50 was under 50 nM.
Molecule `CN1CC=C(c2cc(NC(=O)c3cccnc3NCc3ccc(F)cc3)ccc2C(C)(C)C)CC1` [Example 39] has an IC50 of under 50 nM.
For `O=C(Nc1cccc(C(F)(F)F)c1)c1cccnc1NCc1ccc(F)c(C#CCN2CCOCC2)c1` [Example 40, [2-({[4-Fluoro-3-(3-morpholin-4-ylprop-1-ynyl)phenyl]methyl}amino)(3-pyridyl)]-N-[3-(trifluoromethyl)phenyl]carboxamide], the IC50 was under 50 nM.
For `O=C(Nc1ccc(Oc2ccccc2)cc1)c1cccnc1NCc1ccc2c(c1)OCO2` [Example 41, {2-[(2H-Benzo[d]1,3-dioxol-5-ylmethyl)amino](3-pyridyl)}-N-(4-phenoxyphenyl)carboxamide], the IC50 was under 50 nM.
In the case of `O=C(Nc1ccc(C(F)(F)F)c(OCCN2CCCC2)c1)c1cccnc1NCc1ccc(F)cc1` [Example 42, 2-(4-Fluoro-benzylamino)-N-[3-(2-pyrrolidin-1-yl-ethoxy)-4-trifluoromethyl-phenyl]-nicotinamide], the IC50 is reported as under 50 nM.
With `CN1CCC(N2CC(C)(C)c3ccc(NC(=O)c4cccnc4NCc4ccc(F)cc4)cc32)CC1` [Example 45, N-[3,3-Dimethyl-1-(1-methyl-piperidin-4-yl)-2,3-dihydro-1H-indol-6-yl]-2-(4-fluoro-benzylamino)-nicotinamide] the IC50 was under 50 nM.
Work on `CN(C)CC(=O)N1CC(C)(C)c2ccc(NC(=O)c3cccnc3NCc3ccc(F)cc3)cc21` [Example 46, N-[1-(2-Dimethylamino-acetyl)-3,3-dimethyl-2,3-dihydro-1H-indol-6-yl]-2-(4-fluoro-benzylamino)-nicotinamide] yielded an IC50 of under 50 nM.
`CC(=O)N1CC(C)(C)Oc2ccc(NC(=O)c3cccnc3NCc3ccc(F)cc3)cc21` [Example 52, N-(4-Acetyl-2,2-dimethyl-3,4-dihydro-2H-benzo[1,4]oxazin-6-yl)-2-(4-fluoro-benzylamino)-nicotinamide] gave an IC50 of under 50 nM.
Work on `O=C(Nc1ccc(C(F)(F)C(F)(F)F)c(OC[C@H]2CCCN2)c1)c1cccnc1NCc1ccc(F)cc1` [Example 54, (R) 2-(4-Fluoro-benzylamino)-N-[3-(pyrrolidin-2-ylmethoxy)-4-pentafluoroethyl-phenyl]-nicotinamide] yielded an IC50 of under 50 nM.
`O=C(Nc1cc(OC[C@H]2CCCN2)cc(C(F)(F)F)c1)c1cccnc1NCc1ccc(F)cc1` [Example 55, (R) 2-(4-Fluoro-benzylamino)-N-[3-(pyrrolidin-2-ylmethoxy)-5-trifluoromethyl-phenyl]-nicotinamide] was tested, and the IC50 was under 50 nM.
`CC(C)(C)c1ccc(NC(=O)c2cccnc2NCc2ccc(F)cc2)cc1OCC1CCNCC1` [Example 56, N-[4-tert-Butyl-3-(piperidin-4-ylmethoxy)-phenyl]-2-(4-fluoro-benzylamino)-nicotinamide] gave an IC50 of under 50 nM.
`CC(C)(C)c1ccc(NC(=O)c2cccnc2NCc2ccc(F)cc2)cc1OC[C@H]1CCCN1` [Example 57, (R) N-[4-tert-Butyl-3-(pyrrolidin-2-ylmethoxy)-phenyl]-2-(4-fluoro-benzylamino)-nicotinamide] showed an IC50 of under 50 nM.
In the case of `CC1(C)CNCc2cc(NC(=O)c3cccnc3NCc3ccc(F)cc3)ccc21` [Example 58, N-(4,4-Dimethyl-1,2,3,4-tetrahydro-isoquinolin-7-yl)-2-(4-fluoro-benzylamino)-nicotinamide], the IC50 is reported as under 50 nM.
Work on `CC1(C)CN(C(=O)CN)c2cc(NC(=O)c3cccnc3NCc3ccc(F)cc3)ccc21` [Example 59, N-[1-(2-Amino-acetyl)-3,3-dimethyl-2,3-dihydro-1H-indol-6-yl]-2-(4-fluoro-benzylamino)-nicotinamide] yielded an IC50 of under 50 nM.
`CC1(C)CN(C2CCNCC2)c2cc(NC(=O)c3cccnc3NCc3ccc(F)cc3)ccc21` [Example 60, N-(3,3-Dimethyl-1-piperidin-4-yl-2,3-dihydro-1H-indol-6-yl)-2-(4-fluoro-benzylamino)-nicotinamide] was tested, and the IC50 was under 50 nM.
`O=C(Nc1cc(OCC2CCNCC2)cc(C(F)(F)F)c1)c1cccnc1NCc1ccc(F)cc1` [Example 61, 2-(4-Fluoro-benzylamino)-N-[3-(piperidin-4-ylmethoxy)-5-trifluoromethyl-phenyl]-nicotinamide] was tested, and the IC50 was under 50 nM.
`CC1(C)CNc2cc(NC(=O)c3cccnc3NCc3ccc(F)cc3)ccc2O1` [Example 62, N-(2,2-Dimethyl-3,4-dihydro-2H-benzo[1,4]oxazin-6-yl)-2-(4-fluoro-benzylamino)-nicotinamide] showed an IC50 of under 50 nM.
`CN1CCC[C@H]1COc1cc(NC(=O)c2cccnc2NCc2ccc(F)cc2)cc(C(F)(F)F)c1` [Example 63, (S)-2-(4-Fluoro-benzylamino)-N-[3-(1-methyl-pyrrolidin-2-ylmethoxy)-5-trifluoromethyl-phenyl]-nicotinamide] was tested, and the IC50 was under 50 nM.
In the case of `CN1CCC(CN2CC(C)(C)c3ccc(NC(=O)c4cccnc4NCc4ccc(F)cc4)cc32)CC1` [Example 64, N-[3,3-Dimethyl-1-(1-methyl-piperidin-4-ylmethyl)-2,3-dihydro-1H-indol-6-yl]-2-(4-fluoro-benzylamino)-nicotinamide], the IC50 is reported as under 50 nM.
`CN1CCC(C(C)(C)c2ccc(NC(=O)c3cccnc3NCc3ccc(F)cc3)cc2)CC1` [Example 65, 2-(4-Fluoro-benzylamino)-N-{4-[1-methyl-1-(1-methyl-piperidin-4-yl)-ethyl]-phenyl}-nicotinamide] showed an IC50 of under 50 nM.
